Measured values as given in ChEMBL document CHEMBL3885881, “DrugMatrix”.

Organism: Rattus norvegicus
Assay: DrugMatrix - Regimen: Daily Repeat
Assay type: toxicity, organism-based, Sprague-Dawley
Set-up: regimen Daily Repeat, gender Male, age 6-8 weeks
Settings: in vivo, po, route oral GAVAGE, vehicle .5 % CMC; for ABSOLUTE BASOPHIL / ABSOLUTE EOSINOPHIL / ABSOLUTE LYMPHOCYTE / ABSOLUTE MONOCYTE / ABSOLUTE SEGMENTED NEUTROPHIL / BASOPHIL / EOSINOPHIL / ERYTHROCYTE COUNT / HEMATOCRIT / HEMOGLOBIN / LEUKOCYTE COUNT / LYMPHOCYTE / MEAN CORPUSCULAR HEMOGLOBIN / MEAN CORPUSCULAR HEMOGLOBIN CONCENTRATION / MEAN CORPUSCULAR VOLUME / MONOCYTE / NEUTROPHIL / NUCLEATED RED BLOOD CELLS / PLATELET COUNT: tissue Blood; for ALANINE AMINOTRANSFERASE / ALBUMIN / ALKALINE PHOSPHATASE / ASPARTATE AMINOTRANSFERASE / BLOOD UREA NITROGEN / CARBON DIOXIDE / CHLORIDE / CHOLESTEROL / CREATINE PHOSPHOKINASE / CREATININE / GLUCOSE / LACTATE DEHYDROGENASE / LIPASE / PHOSPHORUS / POTASSIUM / SODIUM / TOTAL BILIRUBIN / TOTAL PROTEIN / URIC ACID: tissue Plasma
[1] = 34 mg/kg, 72 h, dose level Low, time 3 day
[2] = 34 mg/kg, 120 h, dose level Low, time 5 day
[3] = 364 mg/kg, 72 h, dose level High, time 3 day
[4] = 364 mg/kg, 120 h, dose level High, time 5 day

With `Cc1cccc(Nc2cc(Cl)nc(SCC(=O)O)n2)c1C` [PIRINIXIC ACID] the “ABSOLUTE BASOPHIL” value [1] was 0 CELLS/uL, the “ABSOLUTE EOSINOPHIL” value [1] was 24.33 CELLS/uL and the “ABSOLUTE LYMPHOCYTE” value [1] was 9231.67 CELLS/uL. The “ABSOLUTE MONOCYTE” value [1] was 145 CELLS/uL, the “ABSOLUTE SEGMENTED NEUTROPHIL” value [1] was 1199 CELLS/uL and the BASOPHIL [1] was 0%. For the same compound, the EOSINOPHIL [1] was 0.33%, the “ERYTHROCYTE COUNT” value [1] was 5.01 x10E6/uL and the HEMATOCRIT [1] was 31.77%. For the same compound, the HEMOGLOBIN [1] was 11.67 G/DL, the “LEUKOCYTE COUNT” value [1] was 10.6 x10E3/uL and the LYMPHOCYTE [1] was 85.67%. The “MEAN CORPUSCULAR HEMOGLOBIN” value [1] was 23.3 pg, the “MEAN CORPUSCULAR HEMOGLOBIN CONCENTRATION” value [1] was 36.7 G/DL and the “MEAN CORPUSCULAR VOLUME” value [1] was 63.5 fL. The MONOCYTE [1] was 1.67%, the NEUTROPHIL [1] was 12.33% and the “NUCLEATED RED BLOOD CELLS” value [1] was 0 /100WBC. For the same compound, the “PLATELET COUNT” value [1] was 1123.33 x10E3/uL, the “ALANINE AMINOTRANSFERASE” value [1] was 55.67 u/L and the ALBUMIN [1] was 4.73 G/DL. For the same compound, the “ALKALINE PHOSPHATASE” value [1] was 457.33 u/L, the “ASPARTATE AMINOTRANSFERASE” value [1] was 87.33 u/L and the “BLOOD UREA NITROGEN” value [1] was 13.33 mg/dL. The “CARBON DIOXIDE” value [1] was 36.67 mmol/L, the CHLORIDE [1] was 100.33 MEQ/L and the CHOLESTEROL [1] was 52.67 mg/dL. For the same compound, the “CREATINE PHOSPHOKINASE” value [1] was 447.33 u/L, the CREATININE [1] was 0.17 mg/dL and the GLUCOSE [1] was 140 mg/dL. For the same compound, the “LACTATE DEHYDROGENASE” value [1] was 140 u/L, the LIPASE [1] was 8 u/L and the PHOSPHORUS [1] was 12.6 mg/dL. For the same compound, the POTASSIUM [1] was 6.61 MEQ/L, the SODIUM [1] was 143.77 MEQ/L and the “TOTAL BILIRUBIN” value [1] was 0.1 mg/dL. For the same compound, the “TOTAL PROTEIN” value [1] was 5.83 G/DL, the “URIC ACID” value [1] was 0.87 mg/dL and the “ABSOLUTE BASOPHIL” value [2] was 0 CELLS/uL. The “ABSOLUTE EOSINOPHIL” value [2] was 0 CELLS/uL, the “ABSOLUTE LYMPHOCYTE” value [2] was 7298 CELLS/uL and the “ABSOLUTE MONOCYTE” value [2] was 306 CELLS/uL. For the same compound, the “ABSOLUTE SEGMENTED NEUTROPHIL” value [2] was 1029.33 CELLS/uL, the BASOPHIL [2] was 0% and the EOSINOPHIL [2] was 0%. For the same compound, the “ERYTHROCYTE COUNT” value [2] was 5.39 x10E6/uL, the HEMATOCRIT [2] was 34.73% and the HEMOGLOBIN [2] was 13.23 G/DL. For the same compound, the “LEUKOCYTE COUNT” value [2] was 8.63 x10E3/uL, the LYMPHOCYTE [2] was 84.33% and the “MEAN CORPUSCULAR HEMOGLOBIN” value [2] was 24.57 pg. For the same compound, the “MEAN CORPUSCULAR HEMOGLOBIN CONCENTRATION” value [2] was 38.13 G/DL, the “MEAN CORPUSCULAR VOLUME” value [2] was 64.5 fL and the MONOCYTE [2] was 3.67%. For the same compound, the NEUTROPHIL [2] was 12%, the “NUCLEATED RED BLOOD CELLS” value [2] was 0 /100WBC and the “PLATELET COUNT” value [2] was 1176.33 x10E3/uL. For the same compound, the “ALANINE AMINOTRANSFERASE” value [2] was 55 u/L, the ALBUMIN [2] was 4.63 G/DL and the “ALKALINE PHOSPHATASE” value [2] was 445.33 u/L. For the same compound, the “ASPARTATE AMINOTRANSFERASE” value [2] was 92.67 u/L, the “BLOOD UREA NITROGEN” value [2] was 10 mg/dL and the “CARBON DIOXIDE” value [2] was 27.67 mmol/L. For the same compound, the CHLORIDE [2] was 105 MEQ/L, the CHOLESTEROL [2] was 39.67 mg/dL and the “CREATINE PHOSPHOKINASE” value [2] was 609.67 u/L. The CREATININE [2] was 0.19 mg/dL, the GLUCOSE [2] was 179 mg/dL and the “LACTATE DEHYDROGENASE” value [2] was 166.33 u/L. It also gave an LIPASE [2] of 9.33 u/L, a PHOSPHORUS [2] of 13.63 mg/dL and a POTASSIUM [2] of 5.28 MEQ/L. For the same compound, the SODIUM [2] was 147.67 MEQ/L, the “TOTAL BILIRUBIN” value [2] was 0.0333 mg/dL and the “TOTAL PROTEIN” value [2] was 6.17 G/DL. For the same compound, the “URIC ACID” value [2] was 1.6 mg/dL, the “ABSOLUTE BASOPHIL” value [3] was 0 CELLS/uL and the “ABSOLUTE EOSINOPHIL” value [3] was 0 CELLS/uL. The “ABSOLUTE LYMPHOCYTE” value [3] was 6159.33 CELLS/uL, the “ABSOLUTE MONOCYTE” value [3] was 64.67 CELLS/uL and the “ABSOLUTE SEGMENTED NEUTROPHIL” value [3] was 442.67 CELLS/uL. The BASOPHIL [3] was 0%, the EOSINOPHIL [3] was 0% and the “ERYTHROCYTE COUNT” value [3] was 5.12 x10E6/uL. The HEMATOCRIT [3] was 32.3%, the HEMOGLOBIN [3] was 11.83 G/DL and the “LEUKOCYTE COUNT” value [3] was 6.67 x10E3/uL. For the same compound, the LYMPHOCYTE [3] was 92.33%, the “MEAN CORPUSCULAR HEMOGLOBIN” value [3] was 23.17 pg and the “MEAN CORPUSCULAR HEMOGLOBIN CONCENTRATION” value [3] was 36.63 G/DL. The “MEAN CORPUSCULAR VOLUME” value [3] was 63.17 fL, the MONOCYTE [3] was 1% and the NEUTROPHIL [3] was 6.67%. The “NUCLEATED RED BLOOD CELLS” value [3] was 0 /100WBC, the “PLATELET COUNT” value [3] was 1033.67 x10E3/uL and the “ALANINE AMINOTRANSFERASE” value [3] was 53.33 u/L. For the same compound, the ALBUMIN [3] was 4.73 G/DL, the “ALKALINE PHOSPHATASE” value [3] was 564 u/L and the “ASPARTATE AMINOTRANSFERASE” value [3] was 87 u/L. The “BLOOD UREA NITROGEN” value [3] was 12.67 mg/dL, the “CARBON DIOXIDE” value [3] was 35.33 mmol/L and the CHLORIDE [3] was 102.33 MEQ/L. The CHOLESTEROL [3] was 49.67 mg/dL, the “CREATINE PHOSPHOKINASE” value [3] was 282.33 u/L and the CREATININE [3] was 0.2 mg/dL. For the same compound, the GLUCOSE [3] was 142.33 mg/dL, the “LACTATE DEHYDROGENASE” value [3] was 143.67 u/L and the LIPASE [3] was 8.67 u/L. The PHOSPHORUS [3] was 12.8 mg/dL, the POTASSIUM [3] was 6.58 MEQ/L and the SODIUM [3] was 147.03 MEQ/L. For the same compound, the “TOTAL BILIRUBIN” value [3] was 0.1 mg/dL, the “TOTAL PROTEIN” value [3] was 5.67 G/DL and the “URIC ACID” value [3] was 1 mg/dL. The “ABSOLUTE BASOPHIL” value [4] was 0 CELLS/uL, the “ABSOLUTE EOSINOPHIL” value [4] was 0 CELLS/uL and the “ABSOLUTE LYMPHOCYTE” value [4] was 6969 CELLS/uL. The “ABSOLUTE MONOCYTE” value [4] was 193.33 CELLS/uL, the “ABSOLUTE SEGMENTED NEUTROPHIL” value [4] was 904.33 CELLS/uL and the BASOPHIL [4] was 0%. For the same compound, the EOSINOPHIL [4] was 0%, the “ERYTHROCYTE COUNT” value [4] was 5.24 x10E6/uL and the HEMATOCRIT [4] was 32.1%. The HEMOGLOBIN [4] was 12.47 G/DL, the “LEUKOCYTE COUNT” value [4] was 8.07 x10E3/uL and the LYMPHOCYTE [4] was 87.33%. For the same compound, the “MEAN CORPUSCULAR HEMOGLOBIN” value [4] was 23.8 pg, the “MEAN CORPUSCULAR HEMOGLOBIN CONCENTRATION” value [4] was 38.8 G/DL and the “MEAN CORPUSCULAR VOLUME” value [4] was 61.27 fL. For the same compound, the MONOCYTE [4] was 2.33%, the NEUTROPHIL [4] was 10.33% and the “NUCLEATED RED BLOOD CELLS” value [4] was 0 /100WBC. The “PLATELET COUNT” value [4] was 1189 x10E3/uL, the “ALANINE AMINOTRANSFERASE” value [4] was 57 u/L and the ALBUMIN [4] was 5 G/DL. For the same compound, the “ALKALINE PHOSPHATASE” value [4] was 591 u/L, the “ASPARTATE AMINOTRANSFERASE” value [4] was 173 u/L and the “BLOOD UREA NITROGEN” value [4] was 15.33 mg/dL. The “CARBON DIOXIDE” value [4] was 35 mmol/L, the CHLORIDE [4] was 101.67 MEQ/L and the CHOLESTEROL [4] was 56.67 mg/dL. For the same compound, the “CREATINE PHOSPHOKINASE” value [4] was 895.67 u/L, the CREATININE [4] was 0.17 mg/dL and the GLUCOSE [4] was 139.67 mg/dL. For the same compound, the “LACTATE DEHYDROGENASE” value [4] was 272.67 u/L, the LIPASE [4] was 9 u/L and the PHOSPHORUS [4] was 11.73 mg/dL. For the same compound, the POTASSIUM [4] was 6.36 MEQ/L, the SODIUM [4] was 146.87 MEQ/L and the “TOTAL BILIRUBIN” value [4] was 0.0667 mg/dL. For the same compound, the “TOTAL PROTEIN” value [4] was 6.1 G/DL and the “URIC ACID” value [4] was 1.1 mg/dL.
